Measurements as given in patent US11696917B2, “Agent enhancing antitumor effect using pyrazolo[3,4-d]pyrimidine compound” (TAIHO PHARMACEUTICAL CO., LTD., priority 2017, dated 2023).

Tested on: NCI-N87 (human stomach cancer)
Assay: Combination of Compound 1 and other antitumor agents (in vitro), CellTiter-Glo, median effect method
Format: cell-based
Method: The supplier of each reagent, the suppliers of tumor cell lines, the media used, and the numbers of cells to be inoculated are shown in the tables below.
The cells were inoculated at 20 μL/well to a 384-well culture plate (Corning Inc.). The plate inoculated with the cells were cultured in an incubator set to 37° C. and 5% CO2. On the day following inoculation, each of mixed solutions of Compound 1 and each other antitumor agent at varying combinations of concentrations was added to the cells. Specifically, 8 serial dilutions (including (0 nM)) of Compound 1 and 10 serial dilutions (including (0 nM)) of the other antitumor agent were prepared using Leibovitz's L-15 medium containing 10% FBS, or ATCC formulated RPMI-1640 medium containing 10% FBS. Drug solutions in which equal amounts of the respective serial dilutions of the compounds were dispensed were mixed at a ratio of 1:1 to prepare a total of 80 mixed drug solutions including every combination. Each of these mixed drug solutions was added at 5 μL/well (N=4) to the plate, followed by further culture for 3 days under conditions of 37° C. and 5% CO2.
Three days later, CellTiter-Glo™ 2.0 Reagent (Promega Corporation) was added thereto at 25 μL/well, and chemiluminescence was measured using a plate reader (EnSpire® Multimode Plate Reader, PerkinElmer Japan Co., Ltd.).
The enhancement of an effect by combined use of the drugs was evaluated according to a method known in the art (a method described in Trends Pharmacol. Sci., 4, 450-454, 1983 or Pharmacol Rev., 58 (3), 621-81, 2006).
An average value from 4 wells of each combination was calculated from the obtained data, and a cell survival rate normalized against a control supplemented with a medium containing a vehicle was calculated. A Fa (fraction of affect) value was calculated by subtracting the cell survival rate from 1. Median effect analysis software CalcuSyn 2.0 (CalcuSyn, Inc.) for calculation by the median effect method was used in the calculation of CI.
As for the combinations of the concentrations of both the drugs for calculating CI, a Fa value closer to 1 presumably means a concentration range in which one of the drugs had too strong an effect, and a Fa value closer to 0 presumably means a concentration range in which any of the drugs had too weak an effect. Since these concentration ranges were not appropriate for the discussion of a synergistic effect, combinations that satisfied 0.2 S Fa 0.8 were extracted from the combinations of the respective concentrations of Compound 1 and the other antitumor agent on the basis of the calculated Fa value.
An effect of combined use was determined as shown in the table below (Pharmacol Rev., 58 (3), p. 621-81, 2006).

[1] = Compound 1 3.70 nM + FdUrd 333333 nM, ratio 1:90000, NCI-N87
[2] = Compound 1 3.70 nM + Gemcitabine 1.37 nM, ratio 1:0.37, NCI-N87
[3] = Compound 1 3.70 nM + Gemcitabine 4.12 nM, ratio 1:1.1, NCI-N87
[4] = Compound 1 3.70 nM + Gemcitabine 12.3 nM, ratio 1:3.3, NCI-N87
[5] = Compound 1 3.70 nM + Gemcitabine 37.0 nM, ratio 1:10, NCI-N87
[6] = Compound 1 3.70 nM + Gemcitabine 111 nM, ratio 1:30, NCI-N87
[7] = Compound 1 3.70 nM + Gemcitabine 333 nM, ratio 1:90, NCI-N87
[8] = Compound 1 3.70 nM + Paclitaxel 1.85 nM, ratio 1:0.50, NCI-N87
[9] = Compound 1 3.70 nM + Paclitaxel 5.56 nM, ratio 1:1.5, NCI-N87
[10] = Compound 1 3.70 nM + Paclitaxel 16.7 nM, ratio 1:4.5, NCI-N87
[11] = Compound 1 3.70 nM + Trifluridine 12346 nM, ratio 1:3333, NCI-N87
[12] = Compound 1 3.70 nM + Trifluridine 37037 nM, ratio 1:10000, NCI-N87
[13] = Compound 1 3.70 nM + Trifluridine 111111 nM, ratio 1:30000, NCI-N87
[14] = Compound 1 11.1 nM + Cisplatin 687 nM, ratio 1:62, NCI-N87
[15] = Compound 1 11.1 nM + Cisplatin 2062 nM, ratio 1:186, NCI-N87
[16] = Compound 1 11.1 nM + Cisplatin 6185 nM, ratio 1:557, NCI-N87
[17] = Compound 1 11.1 nM + Cisplatin 18556 nM, ratio 1:1670, NCI-N87
[18] = Compound 1 11.1 nM + Cisplatin 55667 nM, ratio 1:5010, NCI-N87
[19] = Compound 1 11.1 nM + FdUrd 4115 nM, ratio 1:370, NCI-N87
[20] = Compound 1 11.1 nM + FdUrd 12346 nM, ratio 1:1111, NCI-N87
[21] = Compound 1 11.1 nM + FdUrd 37037 nM, ratio 1:3333, NCI-N87
[22] = Compound 1 11.1 nM + FdUrd 111111 nM, ratio 1:10000, NCI-N87
[23] = Compound 1 11.1 nM + FdUrd 333333 nM, ratio 1:30000, NCI-N87
[24] = Compound 1 11.1 nM + FdUrd 1000000 nM, ratio 1:90000, NCI-N87
[25] = Compound 1 11.1 nM + Paclitaxel 0.206 nM, ratio 1:0.019, NCI-N87
[26] = Compound 1 11.1 nM + Paclitaxel 0.617 nM, ratio 1:0.056, NCI-N87
[27] = Compound 1 11.1 nM + Paclitaxel 1.85 nM, ratio 1:0.17, NCI-N87
[28] = Compound 1 11.1 nM + Paclitaxel 5.56 nM, ratio 1:0.50, NCI-N87
[29] = Compound 1 11.1 nM + Trifluridine 4115 nM, ratio 1:370, NCI-N87
[30] = Compound 1 11.1 nM + Trifluridine 12346 nM, ratio 1:1111, NCI-N87
[31] = Compound 1 11.1 nM + Trifluridine 37037 nM, ratio 1:3333, NCI-N87
[32] = Compound 1 11.1 nM + Trifluridine 111111 nM, ratio 1:10000, NCI-N87
[33] = Compound 1 33.3 nM + Cisplatin 2062 nM, ratio I:62, NCI-N87
[34] = Compound 1 33.3 nM + FdUrd 12346 nM, ratio 1:370, NCI-N87
[35] = Compound 1 […] + Gemcitabine 4.12 nM, ratio 1:10, NCI-N87
[36] = Compound 1 […] + Gemcitabine 12.3 nM, ratio 1:30, NCI-N87
[37] = Compound 1 […] + Gemcitabine 37.0 nM, ratio 1:90, NCI-N87

With `C=CC(=O)N1CCC[C@@H](n2nc(C(=O)Nc3ccc(CC(=O)N(C)C)c(C)c3C)c3c(N)ncnc32)C1` [Compound 1, (R)-1-(1-acryloylpiperidin-3-yl)-4-amino-N-(4-(2-(dimethylamino)-2-oxoethyl)-2,3-dimethylphenyl)-1H-pyrazolo[3,4-d]pyrimidine-3-carboxamide] the CI [1] was 0.47, the Fa [1] was 0.62 and the CI [2] was 0.15. It also gave a Fa [2] of 0.75, a CI [3] of 0.12 and a Fa [3] of 0.77. The CI [4] was 0.10, the Fa [4] was 0.80 and the CI [5] was 0.11. The Fa [5] was 0.78, the CI [6] was 0.11 and the Fa [6] was 0.78. The CI [7] was 0.12, the Fa [7] was 0.77 and the CI [8] was 0.84. For the same compound, the Fa [8] was 0.41, the CI [9] was 0.42 and the Fa [9] was 0.64. The CI [10] was 0.55, the Fa [10] was 0.71 and the CI [11] was 0.51. For the same compound, the Fa [11] was 0.57, the CI [12] was 0.51 and the Fa [12] was 0.61. The CI [13] was 0.51, the Fa [13] was 0.67 and the CI [14] was 0.87. For the same compound, the Fa [14] was 0.59, the CI [15] was 0.71 and the Fa [15] was 0.64. The CI [16] was 0.48, the Fa [16] was 0.74 and the CI [17] was 0.50. For the same compound, the Fa [17] was 0.77, the CI [18] was 0.90 and the Fa [18] was 0.79. For the same compound, the CI [19] was 0.79, the Fa [19] was 0.61 and the CI [20] was 0.55. It also gave a Fa [20] of 0.68, a CI [21] of 0.58 and a Fa [21] of 0.67. For the same compound, the CI [22] was 0.46, the Fa [22] was 0.73 and the CI [23] was 0.52. It also gave a Fa [23] of 0.75, a CI [24] of 0.31 and a Fa [24] of 0.79. The CI [25] was 0.58, the Fa [25] was 0.69 and the CI [26] was 0.52. The Fa [26] was 0.71, the CI [27] was 0.61 and the Fa [27] was 0.69. It also gave a CI [28] of 0.44, a Fa [28] of 0.78 and a CI [29] of 0.79. The Fa [29] was 0.69, the CI [30] was 0.51 and the Fa [30] was 0.77. For the same compound, the CI [31] was 0.63, the Fa [31] was 0.74 and the CI [32] was 0.49. It also gave a Fa [32] of 0.80, a CI [33] of 0.73 and a Fa [33] of 0.80. For the same compound, the CI [34] was 0.76, the Fa [34] was 0.80 and the CI [35] was 0.21. For the same compound, the Fa [35] was 0.68, the CI [36] was 0.23 and the Fa [36] was 0.69. For the same compound, the CI [37] was 0.02 and the Fa [37] was 0.71.
